Test results as given in patent US20240002437A1, “COMPOSITIONS AND METHODS OF TREATING INFLAMMATORY LUNG DISEASES” (priority 2020, published 2024).

Columns and labels:
PAEC [1] = assay: Mitochondrial membrane potential (TMRM) in PAEC; type: cell-based, ovine; conditions: 4αPDD 10 μM, 3 h
Procedure: (§1) Primary cultures of ovine pulmonary arterial endothelial cells (PAEC) were isolated as described previously (L. K. Kelly, Am J Physiol Lung Cell Mol Physiol, 286(5), L984-91 (2004)). Briefly, cells were maintained in Dulbecco's modified Eagle medium (DMEM) supplemented with 10% fetal calf serum (Hyclone, Logan, UT), antibiotics/antimycotic (500 IU Penicillin, 500 μg/ml Streptomycin, 1.25 μg/ml Amphotericin B; MediaTech, Herndon, VA) at 37° C. in a humidified atmosphere with 5% CO2 and 95% air. Cells were used for experiments between passages 9-14, seeded at ˜50% confluence, and utilized when fully confluent.
Mitochondrial membrane potential was determined using TMRM (tetramethylrhodamine methyl ester perchlorate, Molecular Probes, Eugene, OR). Briefly, after each experiment, cells were washed with fresh media, incubated in media containing TMRM (50 nM), for 30 min at 37° C. in dark conditions, then subjected to fluorescence microscopy using an excitation of 548 nm and an emission at 575 nm. An Olympus IX51 microscope equipped with a CCD camera (Hamamatsu Photonics) was used for acquisition of fluorescent images and the average fluorescent intensities were quantified using ImagePro Plus version 5.0 imaging software (Media Cybernetics).

PAEC [2] = assay: Cellular peroxynitrite levels (DHR 123 oxidation) in PAEC; type: cell-based, ovine; conditions: 4αPDD
Procedure: as §1
The level of cell peroxynitrite was determined by the oxidation of dihydrorhodamine (DHR) 123 (EMD Millipore, Billerica, MA) to rhodamine 123, as previously described (S. Aggarwal, J Cell Physiol, 226(12), 3104-13 (2011)). Briefly, cultured PAEC were treated with or without TGF-β1 (5 ng/ml, 8 h) or GW9662 (5 μM, 24 h). The cells were collected and the cell pellet was then treated with PEG-Catalase (100 U, 30 min) to reduce H2O2 dependent DHR 123 oxidation. DHR 123 (5 μM, 30 min) was added to the cell pellet in phenol red-free media and the fluorescence of rhodamine 123 measured using a Fluoroskan Ascent Microplate Fluorometer with excitation at 485 nm and emission at 545 nm. Fluorescent values were normalized to the protein levels in each sample.

TRPV4 = conditions: literature (Alvarez, Circ Res 2006); cited from earlier work

## CCCCCCCCCC(=O)O[C@@H]1[C@@H](C)[C@@]2(O)[C@@H](C=C(CO)C[C@@]3(O)C(=O)C(C)=C[C@@H]23)[C@@H]2C(C)(C)[C@]12OC(=O)CCCCCCCCC [4αPDD, 4α-Phorbol-12,13 didecanoate]
PAEC [1]
  mitochondrial membrane potential (TMRM): decrease in the mitochondrial membrane potential
PAEC [2]
  cellular peroxynitrite levels: increases
TRPV4
  lung injury on 4αPDD exposure: leads to Ca^2+ entry-dependent acute lung injury, disruption of the lung barrier, and alveolar flooding
